From patent US12109197B2, “Combinations of β-lactam compounds and probenecid and uses thereof” (Iterum Therapeutics International Limited, priority 2018, dated 2024)
Where “and” joins values, the source holds several entries; their conditions need not be identical. Equal entries are not always repeated. Where two headings read alike, the source gives them in different places.

What was measured:
[1] = for Cmax / TAMIC0.5 / TAMIC1.0 / Tmax / AUCtau / AUCinf / AUClast / t1/2: plasma; for Tmax: median (minimum-maximum); for AUCtau: time 0 to 12 hours
Protocol: Subjects were to be dosed twice a day (every 12 hours) for 6 days and on Day 7 they were to be dosed once. All treatment groups could be run in parallel or sequentially. Subjects were allocated based on the randomization list. Randomization numbers were assigned sequentially as subjects entered into groups on the basis of their order of entry into the study. Subjects who withdrew for reasons unrelated to safety may have been replaced. Blood samples were obtained at prespecified intervals in order to characterize pharmacokinetics.

[2] = format: in vivo, human; conditions: for TAMIC0.5 / TAMIC1.0 / Tmax: median; for Ae24%: percent of administered dose, adjusted for MW; for CLr: renal clearance; for Ae24: urine over 24 hours postdose
Description: The pharmacokinetics of Compound III-2b wer studies in a randomized, subject-blinded, investigator- and sponsor-open, placebo-controlled, multiple-dose study, run in parallel cohorts. There were 7 cohorts of approximately 10 subjects each (4:1 active:placebo).

[3] = format: in vivo, human; conditions: for Tlast / Tmax: median; for TAMIC1: minimum concentration 0.5 μg/mL; for TAMIC2: minimum concentration 1.0 μg/mL
Protocol: A Phase 1, randomized, investigator-blind, subject-blind, sponsor-open, placebo-controlled, single and multiple dose study of Compound II-2b was further conducted. There were 6 planned cohorts of subjects. Each cohort was planned to enroll 12 subjects, for a total of 72 planned subjects. Subjects in the multidose cohort were dosed for 10 days; new subjects were recruited for each cohort. Subjects in these cohorts, on Days 1 through 9, were dosed BTD (12 hours apart) at approximately 0800 and 2000 hours. On Day 10, subjects were to be dosed only once at approximately 0800 hours.

[4] = Cohort 2: 1 g BID, fasted, Day 1
[5] = Cohort 2: 1 g BID, fasted, Day 7
[6] = Cohort 3: 1.5 g BID, fed, Day 1
[7] = Cohort 3: 1.5 g BID, fed, Day 7
[8] = Cohort 4: 0.5 g BID, fasted, Day 1
[9] = Cohort 4: 0.5 g BID, fasted, Day 7
[10] = 2000 mg BID, Study Day 1, plasma
[11] = 2000 mg BID, Study Day 10, plasma

## CCC(CC)C(=O)OCOC(=O)C1=C(S[C@H]2CC[S@@+]([O-])C2)S[C@@H]2[C@@H]([C@@H](C)O)C(=O)N12 [Compound III-2b, Sulopenem Etzadroxil]
[1]; Day 7, With Probenecid
  AUCtau, GM: 5325.20 ng·h/mL
  Cmax, GM: 1532.10 ng/mL
[1]; Day 7, Without Probenecid
  AUCtau, GM: 3084.36 ng·h/mL
  Cmax, GM: 1233.18 ng/mL
[1]; administered alone through the oral route
  AUC of sulopenem on Day 7 compared with Day 1: lower than that on Day 1
[1]; co-administered with probenecid
  AUC of sulopenem on Day 7 compared with Day 1: increased on Day 7 beyond that seen on Day 1
[1]; fasted, Day 1
  Cmax: 1699.1 (31.64) ng/mL
  TAMIC0.5: 2.6348 (14.85) h
  TAMIC1.0: 1.0758 (94.61) h
  Tmax: 1.0000 (0.4830-2.017) h
  AUCtau: 3623.8 (19.19) hr*ng/mL and 3623.8 hr*ng/mL
[1]; fasted, Day 7
  AUCinf: 2627.8 (18.89) hr*ng/mL
  AUClast: 2607.4 (19.10) hr*ng/mL
  Cmax: 1289.4 (39.17) ng/mL
  TAMIC0.5: 2.1088 (16.74) h
  TAMIC1.0: 0.732 (62.70) h
  t1/2: 0.9376 (15.34) h
  Tmax: 0.9915 (0.5000-1.033) h
  AUCtau: 2626.3 (18.89) hr*ng/mL and 2626.3 hr*ng/mL
[1]; fed, Day 1
  Cmax: 1730.9 (46.66) ng/mL
  TAMIC0.5: 3.0103 (31.13) h
  TAMIC1.0: 2.0882 (25.12) h
  Tmax: 1.000 (1.5000-2.983) h
  AUCtau: 4413.7 (27.00) hr*ng/mL
[1]; fed, Day 7
  AUCinf: 3712.7 (24.27) hr*ng/mL
  AUClast: 3537 (25.01) hr*ng/mL
  Cmax: 1179.4 (25.94) ng/mL
  TAMIC0.5: 2.8507 (31.48) h
  TAMIC1.0: 1.3191 (62.54) h
  t1/2: 0.9114 (26.68) h
  Tmax: 1.483 (2.0000-4.000) h
  AUCtau: 3706.4 (24.21) hr*ng/mL
[2]; 500 mg FED, Day 1
  AUCinf: 3400 ng·h/mL
[2]; 500 mg FED, Day 7
  AUCinf: 2990 ng·h/mL
[2]; 1000 mg FED, Day 1
  AUCinf: 9430 ng·h/mL
[2]; 1000 mg FED, Day 7
  AUCinf: 7800 ng·h/mL
[2]; 1000 mg TID FED, Day 1
  AUCinf: 8290 ng·h/mL
[2]; 1000 mg TID FED, Day 7
  AUCinf: 6750 ng·h/mL
[2]; 1000 mg, Day 1
  AUCinf: 6680 ng·h/mL
[2]; 1000 mg, Day 7
  AUCinf: 6020 ng·h/mL
[2]; 1500 mg, Day 1
  AUCinf: 12900 ng·h/mL
[2]; 1500 mg, Day 7
  AUCinf: 9950 ng·h/mL
[2]; Cohort 1: 1 g BID, fed, Day 1
  AUCinf: 9430 (13) ng · h/mL
  AUClast: 9330 (13) ng · h/mL
  Cmax: 4420 (24) ng/mL
  t½: 0.823 (13) h
  TAMIC0.5: 4.35 h
  TAMIC1.0: 3.21 h
  Tmax: 1.50 h
[2]; Cohort 1: 1 g BID, fed, Day 7
  AUCinf: 7800 (17) ng · h/mL
  AUClast: 7670 (17) ng · h/mL
  Cmax: 3770 (23) ng/mL
  t½: 0.761 (11) h
  TAMIC0.5: 3.32 h
  TAMIC1.0: 2.64 h
  Tmax: 2.00 h
  Ae24%: 19.0 (27) %
  CLr: 17.4 (19) L/h
  Ae24: 138.7 (27) mg
[2]; Cohort 1: 1 g BID, fed, Day 7, accumulation ratio
  Rac: 0.832 (13)
[2]; [4]
  AUCinf: 6680 (20) ng · h/mL
  AUClast: 6770 (22) ng · h/mL
  Cmax: 2760 (13) ng/mL
  t½: 1.37 (33) h
  TAMIC0.5: 3.69 h
  TAMIC1.0: 2.91 h
  Tmax: 1.50 h
[2]; [5]
  AUCinf: 6020 (16) ng · h/mL
  AUClast: 6070 (19) ng · h/mL
  Cmax: 2410 (33) ng/mL
  t½: 1.08 (24) h
  TAMIC0.5: 4.18 h
  TAMIC1.0: 2.72 h
  Tmax: 1.75 h
  Ae24%: 10.2 (23) %
  CLr: 12.2 (30) L/h
  Ae24: 74.4 (23) mg
[2]; Cohort 2: 1 g BID, fasted, Day 7, accumulation ratio
  Rac: 0.910 (11)
[2]; [6]
  AUCinf: 12900 (23) ng · h/mL
  AUClast: 12100 (21) ng · h/mL
  Cmax: 3700 (42) ng/mL
  t½: 1.20 (14) h
  TAMIC0.5: 6.34 h
  TAMIC1.0: 4.81 h
  Tmax: 2.50 h
[2]; [7]
  AUCinf: 9950 (15) ng · h/mL
  AUClast: 9710 (15) ng · h/mL
  Cmax: 2670 (28) ng/mL
  t½: 0.901 (14) h
  TAMIC0.5: 5.96 h
  TAMIC1.0: 4.44 h
  Tmax: 2.51 h
[2]; Cohort 3: 1.5 g BID, fed, Day 7, accumulation ratio
  Rac: 0.809 (14)
[2]; [8]
  AUCinf: 3400 (20) ng · h/mL
  AUClast: 3260 (22) ng · h/mL
  Cmax: 1470 (34) ng/mL
  t½: 0.862 (19) h
  TAMIC0.5: 2.66 h
  TAMIC1.0: 1.38 h
  Tmax: 1.03 h
[2]; [9]
  AUCinf: 2990 (23) ng · h/mL
  AUClast: 2730 (27) ng · h/mL
  Cmax: 1310 (22) ng/mL
  t½: 0.797 (16) h
  TAMIC0.5: 2.38 h
  TAMIC1.0: 0.803 h
  Tmax: 1.50 h
[2]; Cohort 4: 0.5 g BID, fasted, Day 7, accumulation ratio
  Rac: 0.873 (29)
[2]; Cohort 7: 1 g TID, fed, Day 1
  AUCinf: 8290 (6) ng · h/mL
  AUClast: 7670 (13) ng · h/mL
  Cmax: 3320 (36) ng/mL
  t½: 1.26 (40) h
  TAMIC0.5: 4.90 h
  TAMIC1.0: 3.32 h
  Tmax: 1.75 h
[2]; Cohort 7: 1 g TID, fed, Day 7
  AUCinf: 6750 (11) ng · h/mL
  AUClast: 6230 (16) ng · h/mL
  Cmax: 2090 (28) ng/mL
  t½: 0.790 (2) h
  TAMIC0.5: 4.62 h
  TAMIC1.0: 3.22 h
  Tmax: 4.00 h
[2]; Cohort 7: 1 g TID, fed, Day 7, accumulation ratio
  Rac: 0.827 (21)
[2]; in vivo
  Rac: 1.10 (24)
[3]; [10]
  AUCinf: 18100 ng·h/mL
  AUCtau: 17500 ng·h/mL
  Cmax: 6090 ng/mL
  t1/2: 1.66 h
  Tlast: 8.00 h
  Tmax: 1.00 h
  TAMIC1: 6.93
  TAMIC2: 5.57
[3]; 2000 mg BID, Study Day 6, urine, percent of sulopenem dose excreted
  Ae %: 17.3 (26) %
[3]; 2000 mg BID, Study Day 6, urine, sulopenem excreted unchanged over 24 hours
  Ae24: 253000 (26) ug
[3]; 2000 mg BID, Study Day 10, accumulation ratio
  Rac: 0.685
[3]; [11]
  AUCtau: 12200 ng·h/mL
  Cmax: 5480 ng/mL
  Ctrough: 0.00 ng/mL
  t1/2: 1.27 h
  Tlast: 8.00 h
  Tmax: 1.00 h
  TAMIC1: 4.70
  TAMIC2: 3.61
[3]; 2000 mg, Day 1
  AUCtau: 17500 ng·h/mL
[3]; 2000 mg, Day 10
  AUCtau: 12200 ng·h/mL
